The assay concerns the target T1, HMG-CoA reductase (HMGR) (Rattus norvegicus, UniProt P51639).
T1 construct: Microsomes prepared from liver of rats administered with cholestyramine; from tissue
T1 sequence (P51639 1-887): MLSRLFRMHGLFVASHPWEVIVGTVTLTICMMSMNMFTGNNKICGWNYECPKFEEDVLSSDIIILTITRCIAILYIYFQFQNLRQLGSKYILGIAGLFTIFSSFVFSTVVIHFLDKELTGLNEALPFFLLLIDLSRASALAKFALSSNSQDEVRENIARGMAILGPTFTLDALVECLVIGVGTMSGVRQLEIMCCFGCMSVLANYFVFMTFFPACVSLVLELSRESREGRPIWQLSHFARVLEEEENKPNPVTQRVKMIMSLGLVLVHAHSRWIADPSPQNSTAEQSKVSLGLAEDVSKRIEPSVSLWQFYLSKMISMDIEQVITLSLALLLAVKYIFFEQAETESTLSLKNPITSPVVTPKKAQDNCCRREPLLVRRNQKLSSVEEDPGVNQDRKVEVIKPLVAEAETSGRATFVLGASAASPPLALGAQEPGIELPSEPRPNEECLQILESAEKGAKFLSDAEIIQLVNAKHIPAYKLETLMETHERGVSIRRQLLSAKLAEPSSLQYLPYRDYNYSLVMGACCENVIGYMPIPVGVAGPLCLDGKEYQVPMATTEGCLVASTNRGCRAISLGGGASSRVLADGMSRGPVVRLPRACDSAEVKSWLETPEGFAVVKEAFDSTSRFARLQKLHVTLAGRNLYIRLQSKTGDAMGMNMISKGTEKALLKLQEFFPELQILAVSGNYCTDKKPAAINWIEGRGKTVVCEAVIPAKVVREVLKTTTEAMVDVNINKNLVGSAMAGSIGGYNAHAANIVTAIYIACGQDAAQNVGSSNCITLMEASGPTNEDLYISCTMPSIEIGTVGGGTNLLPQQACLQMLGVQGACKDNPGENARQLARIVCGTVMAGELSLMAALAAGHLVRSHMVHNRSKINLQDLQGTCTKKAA
Put plainly: Inhibitory activity against rat hepatic microsomal HMG-CoA reductase (HMGR). The class given is biochemical. As to conditions: rat liver microsomes, ¹⁴C-HMG-CoA substrate, 10 minutes incubation. Here is the method: Experiment [Inhibitory Activity against Rat Hepatic Microsomal HMG-CoA reductase (HMGR)]
HMGR activities of microsomes were measured in accordance with the method of N. L. Young et al., Methods in Enzymology, 71, 498 (1981).
Microsomes prepared from liver of rats administered with cholestyramine were mixed with a solution of the compounds to be tested in dimethyl sulfoxide and ¹⁴C-HMG-CoA (substrate). After the mixture was incubated for 10 minutes, the reaction was quenched with 6N hydrochloric acid and the mixture was allowed to stand at 37°C for 15 minutes, followed by centrifugation. The supernatant was spotted on thin layer chromatography (TLC; Kieselgel 60F254 manufactured by Merck) and developed with toluene/acetone (1:1). The spot of ¹⁴C-mevalonolactone was collected and the amount of isotope was measured with a scintillation counter (Type 4640 TRI-CARB. manufactured by Paccard) to calculate an amount of the formed mevalonolactone. By comparing amounts of the formed mevalonolactone in the group treated with test compounds and the control group (without test compounds), HMGR activity inhibition rates of the test compounds were calculated.
(Microsomes from liver hold many membrane-bound enzymes, among them those of drug oxidation.)

`CCC1(CC)Oc2ccccc2C(c2ccc(F)cc2)=C1/C=C/[C@@H](O)C[C@@H](O)CC(=O)[O-].[Na+]` (relative stereo) [A, (3R*,5S*)-(E)-7-[4-(4-Fluorophenyl)-2,2-diethyl-2H-chromen-3-yl]-3,5-dihydroxy-6-heptenoic acid sodium salt]: the “HMGR Inhibition (%)” value runs as follows: (Conc. of Compounds 10⁻⁶ M) 100%; (Conc. of Compounds 10⁻⁷ M) 67%.

As for `CCC1(CC)Oc2ccccc2C(c2ccc(F)cc2)=C1/C=C/[C@H]1C[C@H](O)CC(=O)O1` (relative stereo) [B, Trans-(E)-6-[2-(4-(4-fluorophenyl)-2,2-diethyl-2H-chromen-3-yl)-1-ethenyl]-3,4,5,6-tetrahydro-4-hydroxy-2H-pyran-2-one], the “HMGR Inhibition (%)” value was 84% (Conc. of Compounds 10⁻⁶ M) and 32% (Conc. of Compounds 10⁻⁷ M).

With `CCC1(CC)Sc2ccccc2C(c2ccc(F)cc2)=C1/C=C/[C@@H](O)C[C@@H](O)CC(=O)[O-].[Na+]` (relative stereo) [C, (+)-(3R*,5S*)-(E)-7-[4-(4-Fluorophenyl)-2,2-diethyl-2H-thiochromen-3-yl]-3,5-dihydroxy-6-heptenoic acid sodium salt], the “HMGR Inhibition (%)” value by setting is: (Conc. of Compounds 10⁻⁶ M) 90%; (Conc. of Compounds 10⁻⁷ M) 45%.

The values are drawn from patent publication EP0420266A2, “Chromene or thiochromene derivatives, process for preparing the same, intermediate therefor, pharmaceutical compositions containing said derivatives and the use of said derivatives” (TANABE SEIYAKU CO., LTD., priority 1989, dated 1991).
